{"source": "patent US7230028B2", "about": "“Dimeric compounds and their use as anti-viral agents” (priority 2001, dated 2007)", "key": {"[1]": {"test_system": "A/New Caledonia/20/99 BVLV008 (H1N1)", "experiment": "Plaque reduction assay (PRA) in MDCK cells", "type": "cell-based"}, "[2]": {"test_system": "A/Panama/2007/99 BVLV008 (H3N2)", "experiment": "Plaque reduction assay (PRA) in MDCK cells", "type": "cell-based"}, "[3]": {"experiment": "Rat lung retention assay (intra-tracheal dosing)", "type": "in vivo", "conditions": "rat, in vivo, 0.1 mg/kg", "protocol": "Rodents are anaesthetised and dosed with compound of interest by the intra-tracheal route at a dose volume of 0.8 ml/kg. The rodent is then held in the vertical position until full recovery is achieved. […] Any analytical method suitable for detection of this type of compound may be used. The time at which levels of compound fall below the sensitivity of the analytical techniques identified will determine the residency time of the compound in lung tissue.\nPlease note that all experiments included a co-dosed internal standard, namely compound 3 of International Patent Publication No. WO 02/20514, to permit comparison. The data are expressed as a ratio with respect to this compound, the structure of which is shown below."}, "[4]": {"test_system": "A/Sydney/5/97 BVLV015 (H3N2)", "experiment": "Plaque reduction assay (PRA) in MDCK cells", "type": "cell-based, influenza A H3N2", "conditions": "Influenza A virus, MDCK, A/Sydney/5/97 (H3N2), read-out: EC50 PRA A/Syd", "protocol": "(§1) Madin Darby Canine Kidney (MDCK) cells are seeded into six well tissue culture plates and grown to confluency via standard methods. Influenza viruses are diluted in a minimal volume of phosphate buffered saline supplemented with 0.2% bovine serum albumin to yield an estimated titre of 50–100 plaque forming units (pfu) per well. After adsorption to the MDCK cells for one hour at 37° C. in a 5% CO2 atmosphere the viral inocula is aspirated and replaced with viral growth media (minimal Eagle's media supplemented with BSA, trypsin and insulin/transferrin/selenium at optimal concentrations) containing sufficient agar or agarose (generally 1–2%) to cause the media to gel at room temperature and at 37° C. in a 5% CO2 atmosphere until plaques develop (generally 2–4 days). Plaques can be visualised with a suitable stain (e.g. 0.4% crystal violet in formal saline) before counting."}, "B/Harbin/7/95 BVLV008": {"test_system": "B/Harbin/7/95 BVLV008", "experiment": "Plaque reduction assay (PRA) in MDCK cells", "type": "cell-based", "conditions": "Influenza B virus, read-out: EC50 PRA B/Harb", "protocol": "as §1"}, "[5]": {"test_system": "A/Victoria/3/75 BVLV017 (H3N2)", "experiment": "Plaque reduction assay (PRA) in MDCK cells", "type": "cell-based", "conditions": "Influenza A virus, H3N2, MDCK, read-out: EC50 PRA A/Vic, plaque reduction, A/Victoria/3/75 (H3N2)"}, "A/WSN/33 BVLV09 (H1N1)": {"test_system": "A/WSN/33 BVLV09 (H1N1)", "experiment": "Plaque reduction assay (PRA) in MDCK cells", "type": "cell-based, influenza A H1N1", "conditions": "A/WSN/33 (H1N1)", "protocol": "as §1"}, "[6]": {"test_system": "A/Bayern/7/95 BVL006 (H1N1)", "experiment": "Plaque reduction assay (PRA) in MDCK cells", "type": "cell-based, influenza A H1N1", "conditions": "Influenza A virus, MDCK, A/Bayern/7/95 (H1N1), read-out: EC50 PRA A/Bay", "protocol": "as §1"}, "B/Hong Kong/5/72 BVLV012": {"test_system": "B/Hong Kong/5/72 BVLV012", "experiment": "Plaque reduction assay (PRA) in MDCK cells", "type": "cell-based, influenza B", "conditions": "Influenza B virus, MDCK, read-out: EC50 PRA B/HongK", "protocol": "as §1"}}, "data": [{"smiles": "CC(=O)N[C@H]1[C@H]([C@H](O)[C@H](O)CO)OC(C(=O)O)=C[C@@H]1NC(=N)N", "note": "[Compound A, 4-guanidino-2-deoxy-2,3-dehydro-N-acetylneuraminic acid]", "values": [{"measurement": "EC50", "setting": "[1]; Influenza A virus, H1N1, MDCK, read-out: EC50 PRA A/New, plaque reduction, A/New Caledonia/20/99 (H1N1)", "value": 0.27, "unit": "ng/mL"}, {"measurement": "EC50 PRA A/New", "setting": "[1]; plaque reduction, A/New Caledonia/20/99 (H1N1)", "value": 0.23, "unit": "ng/mL"}, {"measurement": "EC50", "setting": "[2]; Influenza A virus, H3N2, MDCK, read-out: EC50 PRA A/Pan, plaque reduction, A/Panama/2007/99 (H3N2)", "value": 2.7, "unit": "ng/mL"}, {"measurement": "EC50 PRA A/Pan", "setting": "[2]; plaque reduction, A/Panama/2007/99 (H3N2)", "value": 3, "unit": "ng/mL"}, {"measurement": "Ratio Mean (lung) (cmpd)/PCT AU01/01128 compound 3", "setting": "[3]; 48 h", "value": 0.26}, {"measurement": "Ratio Mean (lung) (cmpd)/PCT AU01/01128 compound 3", "setting": "[3]; 168 h", "value": 0.08}, {"measurement": "EC50", "setting": "[4]", "value": 2.4, "unit": "ng/mL"}, {"measurement": "EC50", "setting": "B/Harbin/7/95 BVLV008", "value": 0.19, "unit": "ng/mL"}, {"measurement": "EC50", "setting": "[5]", "value": 5.5, "unit": "ng/mL"}, {"measurement": "EC50 PRA A/WSN", "setting": "A/WSN/33 BVLV09 (H1N1)", "value": "> 100", "unit": "ng/mL"}, {"measurement": "EC50", "setting": "A/WSN/33 BVLV09 (H1N1); Influenza A virus, MDCK", "value": 56, "unit": "ng/mL"}, {"measurement": "EC50", "setting": "[6]", "value": 35, "unit": "ng/mL"}, {"measurement": "EC50", "setting": "B/Hong Kong/5/72 BVLV012", "value": 21, "unit": "ng/mL"}]}]}
